Assay results taken from patent US20150306269A1, “UPSTREAM HYDROGEN PEROXIDE […]” (The Vincit Company, LLC, priority 2014, published 2015).

Columns and labels:
bacteria [1] = assay: Chicken wings: total plate count of inoculated chicken wing skin after exposure to treated air; assay type: cell-based; conditions: chicken wings inoculated in Tryptic Soy Broth with about seven log bacteria; maximum over 10, 30, 45 and 60 seconds treatment; nebulized 3% hydrogen peroxide; Tryptic Soy Agar, 24 hours
Description: Similar testing was performed on chicken wings. Twenty-four store-bought chicken wings were prepared by submersing them in a Tryptic Soy Broth broth solution containing about a seven log concentration of bacteria. The wings were removed and allowed to air dry. The wings were separated into groups of six, one group designated to be exposed to air running through the air sanitation system containing only nebulized 3% hydrogen peroxide, another group exposed to UV light-generated radicals, and the last group exposed to both 3% H2O2 and UV radicals. The final six wings were designated the control group and were exposed only to untreated air circulated though the sanitation system.
Immediately following treatment at times of 10 seconds, 30 seconds, 45 seconds and 60 seconds, approximately 1 square inch of skin on each wing was swabbed with moistened sample sponges. The sponges were stomached in phosphate buffer solution for 2 minutes, then the buffer solution was serially diluted and plated on Tryptic Soy Agar and incubated for 24 hours to obtain a total plate count.

bacteria [2] = assay: Egg shell testing: total plate count of inoculated egg shells after exposure to treated air; assay type: cell-based; conditions: half egg shells inoculated in broth with about seven log bacteria; 10 minutes exposure; nebulized 3% hydrogen peroxide; swab plated on Tryptic Soy Agar, 24 hours
Description: In preliminary testing, twelve store-bought fresh eggs were prepared by blowing out the contents and cutting the egg shells in half. Twenty-four half shells were inoculated by submersion in a broth solution containing about a seven log concentration bacteria. Egg shells were removed and allowed to air dry. […] The final six shells were designated the control group and were exposed only to untreated air circulated though the sanitation system. The twenty-four half shells were allowed to be exposed to their respective situation for a period of 10 minutes.
Immediately following treatment, approximately 1 square inch swab samples were taken from the surface of each egg shell then serially diluted and plated on Tryptic Soy Agar and incubated for 24 hours to obtain a total plate count.

OO [H2O2, hydrogen peroxide] was tested, and the “maximum log10 reduction (total plate count)” value (bacteria [1]) was 0.9 log10 and the “log10 reduction (total plate count)” value (bacteria [2]) was 1.5 log10.
